From article PMC8552062, “Contributions of UDP-Glucuronosyltransferases to Human Hepatic and Intestinal Metabolism of Ticagrelor and Inhibition of UGTs and Cytochrome P450 Enzymes by Ticagrelor and its Glucuronidated Metabolite” (Frontiers in Pharmacology, 2021)

Assays:
Assay type in all cases: in vitro ADME
[1] = biological target: T1, CYP2C8 (Homo sapiens, UniProt P10632); experiment: CYP2C8 inhibition in HLM (amodiaquine N-deethylase); conditions: HLM 0.2 mg/ml
T1 construct: co-incubation ticagrelor-O-Glu with selective P450 probe substrates in HLM; tissue XenoTech LLC; host or cells: pooled human liver microsomes
T1 sequence (P10632 whole entry): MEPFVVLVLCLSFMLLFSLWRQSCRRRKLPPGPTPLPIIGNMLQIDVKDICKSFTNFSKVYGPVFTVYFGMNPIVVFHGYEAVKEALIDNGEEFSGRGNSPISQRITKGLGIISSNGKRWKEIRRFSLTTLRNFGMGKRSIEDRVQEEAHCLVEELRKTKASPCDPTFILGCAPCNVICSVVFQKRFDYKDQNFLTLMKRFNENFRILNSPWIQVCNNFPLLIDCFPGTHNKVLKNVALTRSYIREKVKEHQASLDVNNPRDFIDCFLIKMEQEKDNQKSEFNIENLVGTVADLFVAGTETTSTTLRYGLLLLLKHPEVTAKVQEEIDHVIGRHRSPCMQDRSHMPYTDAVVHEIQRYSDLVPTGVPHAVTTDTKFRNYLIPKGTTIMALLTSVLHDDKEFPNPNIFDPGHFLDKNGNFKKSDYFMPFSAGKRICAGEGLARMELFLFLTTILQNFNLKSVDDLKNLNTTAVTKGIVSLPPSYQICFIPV
Method: (§1) The potential inhibitory effects of ticagrelor-O-Glu on the activities of major CYPs, i.e., CYP2B6, CYP2C8, CYP2C9, CYP2C19, CYP2D6, and CYP3A4, were evaluated by co-incubation ticagrelor-O-Glu with selective P450 probe substrates in HLM. Each incubation mixture containing 0.2 mg/ml HLM, ticagrelor-O-Glu and respective substrate (the final substrate concentrations are close to or less than the Km values: 150 μM bupropion, 1.26 μM amodiaquine, 10 μM diclofenac, 20 μM mephenytoin, 20 μM dextromethorphan and 80 μM testosterone (in house data)) in potassium phosphate buffer (100 mM, pH 7.4) was pre-incubated at 37°C for 5 min. Then, NADPH (10 mM) was added to initiate the reaction. The final volume of the incubation mixture was 100 μl. After incubation at 37°C for specific time points, the reaction was terminated by the addition of 200 μl of ice-cold methanol solution with internal standards (diazepam and furafylline). […] The formation of respective metabolites was determined to reflect P450 isoform activities. The metabolites quantified for CYP2B6, CYP2C8, CYP2C9, CYP2C19, CYP2D6, and CYP3A4 were hydroxy bupropion, N-Desethyl amodiaquine, 4′-hydroxylation diclofenac, S-4-hydroxy mephenytoin, dextrorphan and 6β-hydroxy testosterone, respectively.
(§2) The percent inhibition relative to the control was calculated to indicate the UGTs or CYPs inhibition. […]

[2] = biological target: T2, CYP2C9 (Homo sapiens, UniProt P11712); experiment: CYP2C9 inhibition in HLM (diclofenac 4′-hydroxylase)
T2 construct: co-incubation ticagrelor-O-Glu with selective P450 probe substrates in HLM; tissue XenoTech LLC; host or cells: pooled human liver microsomes
T2 sequence (P11712 whole entry): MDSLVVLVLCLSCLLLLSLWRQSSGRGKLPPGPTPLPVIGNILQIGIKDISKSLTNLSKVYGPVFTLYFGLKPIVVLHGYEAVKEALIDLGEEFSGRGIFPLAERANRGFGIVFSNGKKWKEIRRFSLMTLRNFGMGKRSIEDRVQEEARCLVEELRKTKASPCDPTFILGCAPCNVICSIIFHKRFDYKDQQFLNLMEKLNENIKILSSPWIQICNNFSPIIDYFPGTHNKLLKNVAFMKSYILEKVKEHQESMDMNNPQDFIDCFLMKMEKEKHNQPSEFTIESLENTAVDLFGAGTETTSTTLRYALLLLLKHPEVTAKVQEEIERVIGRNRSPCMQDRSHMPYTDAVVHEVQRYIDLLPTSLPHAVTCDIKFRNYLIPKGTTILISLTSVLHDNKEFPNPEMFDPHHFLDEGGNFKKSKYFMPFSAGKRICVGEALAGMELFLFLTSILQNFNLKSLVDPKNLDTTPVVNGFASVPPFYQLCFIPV
Method: The potential inhibitory effects of ticagrelor-O-Glu on the activities of major CYPs, i.e., CYP2B6, CYP2C8, CYP2C9, CYP2C19, CYP2D6, and CYP3A4, were evaluated by co-incubation ticagrelor-O-Glu with selective P450 probe substrates in HLM. Each incubation mixture containing 0.2 mg/ml HLM, ticagrelor-O-Glu and respective substrate (the final substrate concentrations are close to or less than the Km values: 150 μM bupropion, 1.26 μM amodiaquine, 10 μM diclofenac, 20 μM mephenytoin, 20 μM dextromethorphan and 80 μM testosterone (in house data)) in potassium phosphate buffer (100 mM, pH 7.4) was pre-incubated at 37°C for 5 min. Then, NADPH (10 mM) was added to initiate the reaction. The final volume of the incubation mixture was 100 μl. After incubation at 37°C for specific time points, the reaction was terminated by the addition of 200 μl of ice-cold methanol solution with internal standards (diazepam and furafylline). Preliminary screening experiments with selected concentrations of ticagrelor-O-Glu (0, 1, 10, or 100 μM of the final concentration) were carried out to determine the inhibition potency. For those that produced approximately 50% inhibition of CYPs enzyme activities at a ticagrelor-O-Glu concentration between 1 and 100 μM, IC50 was further determined with various concentrations of ticagrelor-O-Glu (0, 1, 5, 10, 20, 50, and 100 μM). All the experiments were performed in triplicates. The supernatant was obtained after centrifugation at 14,000 rpm for 10 min and injected into LC-MS/MS for the analysis of the respective metabolites. The formation of respective metabolites was determined to reflect P450 isoform activities. The metabolites quantified for CYP2B6, CYP2C8, CYP2C9, CYP2C19, CYP2D6, and CYP3A4 were hydroxy bupropion, N-Desethyl amodiaquine, 4′-hydroxylation diclofenac, S-4-hydroxy mephenytoin, dextrorphan and 6β-hydroxy testosterone, respectively.
as §2

[3] = biological target: T3, CYP3A4 (Homo sapiens, UniProt P08684); experiment: CYP3A4 inhibition in HLM (testosterone 6β-hydroxylase); conditions: human liver microsomes, pH 7.4, probe testosterone (80 μM), 6β-hydroxy testosterone formation
T3 construct: co-incubation ticagrelor-O-Glu with selective P450 probe substrates in HLM; tissue XenoTech LLC; host or cells: pooled human liver microsomes
T3 sequence (P08684 whole entry): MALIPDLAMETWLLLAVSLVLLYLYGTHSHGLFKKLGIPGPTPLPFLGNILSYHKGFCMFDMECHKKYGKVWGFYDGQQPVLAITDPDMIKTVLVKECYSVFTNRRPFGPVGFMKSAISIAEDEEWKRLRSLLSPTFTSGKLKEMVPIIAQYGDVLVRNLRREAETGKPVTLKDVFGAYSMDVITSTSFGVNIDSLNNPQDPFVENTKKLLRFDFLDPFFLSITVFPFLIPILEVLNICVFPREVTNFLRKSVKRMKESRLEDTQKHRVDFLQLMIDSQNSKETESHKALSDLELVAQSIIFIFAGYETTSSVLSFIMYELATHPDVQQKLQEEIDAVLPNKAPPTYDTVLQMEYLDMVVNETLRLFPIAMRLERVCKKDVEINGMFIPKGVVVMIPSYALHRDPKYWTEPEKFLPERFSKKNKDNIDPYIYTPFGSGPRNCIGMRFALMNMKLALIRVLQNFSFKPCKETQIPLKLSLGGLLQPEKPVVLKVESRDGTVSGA
Method: as §1, §2

[4] = biological target: T4, UGT1A9 (Homo sapiens, UniProt O60656); experiment: Ticagrelor glucuronidation by recombinant human UGT1A9; design: purchased BD Gentest; host or cells: baculovirus-infected insect cells; conditions: recombinant human UGT1A9, pH 7.4
T4 sequence (O60656 26-530): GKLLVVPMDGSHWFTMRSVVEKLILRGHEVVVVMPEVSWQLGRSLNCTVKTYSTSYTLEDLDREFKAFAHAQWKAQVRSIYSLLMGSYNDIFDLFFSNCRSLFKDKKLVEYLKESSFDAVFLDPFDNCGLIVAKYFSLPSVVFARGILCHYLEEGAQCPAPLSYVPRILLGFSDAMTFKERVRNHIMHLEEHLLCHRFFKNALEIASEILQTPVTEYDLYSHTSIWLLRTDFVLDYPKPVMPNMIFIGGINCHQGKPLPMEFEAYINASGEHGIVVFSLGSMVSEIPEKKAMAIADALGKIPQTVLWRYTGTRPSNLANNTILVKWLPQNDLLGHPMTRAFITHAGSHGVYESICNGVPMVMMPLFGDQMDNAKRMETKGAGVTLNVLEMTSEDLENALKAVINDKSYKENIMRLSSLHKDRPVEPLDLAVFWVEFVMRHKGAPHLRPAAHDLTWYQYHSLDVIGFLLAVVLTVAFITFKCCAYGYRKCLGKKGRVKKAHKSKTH
Method: Ticagrelor glucuronidation was investigated in an in vitro incubation system by using HLM, HIM, and recombinant human UGTs. The incubation system consisted of enzyme sources (HLM, HIM, or human recombinant UGTs), various concentrations of ticagrelor (dissolved in 50% methanol, 1% v/v, 1, 2, 5, 10, 20, 50, 100, 200, 500 μM of final concentration), alamethicin (50 μg/mg protein), 5 mM MgCl2, 100 mM tris-HCL buffer (pH 7.4), and 5 mM UDPGA in a total volume of 100 μl. Alamethicin is a pore-forming polypeptide used to activate UGTs in HLM and HIM ([Fisher et al., 2000]). Preliminary studies were conducted to determine the optimal protein concentrations and incubation times. Linear conditions of ticagrelor-O-Glu formation from ticagrelor, i.e., HLM, 0.2 mg of protein/ml and 60 min, HIM, 0.2 mg of protein/ml and 60 min, and recombinant human UGTs, 0.2 mg of protein/ml and 60 min were selected. The incubation mixture without UDPGA was placed on ice for 15 min to activate UGT by alamethicin. […]
Kinetic analyses were performed using the mean values of triplicate determinations with either pooled HLM, HIM, or recombinant human UGTs. All data were analyzed by nonlinear regression analysis using the GraphPad Prism 6 (GraphPad Software Inc., CA, United States). […] Intrinsic clearance (CLint) was calculated by dividing Vmax by Km.

Compound | IC50 [1] | IC50 ([2]; CYP2C9, diclofenac 4′-hydroxylase, HLM 0.2 mg/ml) | inhibition at 10 μM ([2]; human, human liver microsomes, pH 7.4, probe diclofenac (10 μM), 4′-hydroxylation diclofenac formation, HLM, 10 μM ticagrelor-O-Glu, read-out: inhibition of CYP2C9 enzyme activity) | inhibition at 100 µM ([2]; human, human liver microsomes, pH 7.4, probe diclofenac (10 μM), 4′-hydroxylation diclofenac formation, HLM, 100 μM ticagrelor-O-Glu, read-out: inhibition of CYP2C9 enzyme activity) | IC50 ([3]; CYP3A4, testosterone 6β-hydroxylase, HLM 0.2 mg/ml) | inhibition at 100 µM ([3]; HLM, 100 μM ticagrelor-O-Glu, read-out: inhibition of CYP3A4 enzyme activity) | microsomal CLint [4]
CCCSc1nc(N[C@@H]2C[C@H]2c2ccc(F)c(F)c2)c2nnn([C@@H]3C[C@H](OCCO[C@@H]4O[C@H](C(=O)O)[C@@H](O)[C@H](O)[C@H]4O)[C@@H](O)[C@H]3O)c2n1 [Ticagrelor-O-Glu, ticagrelor-O-glucuronide] | > 100 µM | 20 µM | 44% | 73.5% | > 100 µM | 57.1% | 
CCCSc1nc(N[C@@H]2C[C@H]2c2ccc(F)c(F)c2)c2nnn([C@@H]3C[C@H](OCCO)[C@@H](O)[C@H]3O)c2n1 [Ticagrelor] |  |  |  |  |  |  | 0.56 µL/min/mg
